According to patent publication US20170305981A1, “SYNTHETIC PEPTIDES” (The University of Chicago, priority 2014, published 2017):
Values joined by “and” are separate entries in the source; they are usually repeats but may differ in a detail not shown here. Equal entries are not always repeated. “Also recorded” adds a separate entry of the source. One block for each substance: values may come before it.

Columns and labels:
lipoprotein lipase (LpL) = assay: Lipoprotein lipase (LpL) in vitro activity assay with fluorogenic TG substrate EnzChek; assay type: biochemical; conditions: for LpL stimulating activity of domain substitution peptides relative to AV199-232: knockout substitutions in AV199-232 domains
Experimental: FIG. 3A-C. Lipoprotein lipase (LpL) activity assay using a fluorogenic TG analog, EnzChek (Invitrogen). The enzyme reaction mix was composed of increasing concentrations of LpL in 100 μl Tris buffered saline (TBS), 1% BSA, pH 7.8, 0.015% Zwittergent 3-14 and 1 μM EnzChek substrate. Reaction was monitored by fluorescence (λex=482 nm, λem=515 nm) and the relative fluorescence units (RFU) against time plotted (A). BODIPY labeled fatty acid (BODIPY-FA) was used to determine product concentration generated with the lipase (B). Structure of the EnzChek substrate (E33955) which was purchased from Invitrogen Inc. (C).
To search for lipase stimulators, a lipase assay was employed using a commercially available fluorogenic-TG substrate (EnzChek) supplied by Molecular Probes (FIG. 3). The protocol was adapted from Basu et al., (Basu et al. (2011) J.Lipid Res. 52, 826-832; herein incorporated by reference in its entirety) with minor modifications in pH and detergent. For in vitro assays, LpL (SIGMA) was diluted to 0.12 μg/ml in 20 mM Tris-HCl, 150 mM NaCl, 1% BSA, 0.015% Zwittergent 3-14, pH 7.8, 1 μM EnzChek substrate, prepared in 96-well black microtiter plates. For some assays the plates were incubates at 37° C. for 10min. Detection was performed in a Synergy H1 Multi-Mode Reader using excitation/emission wavelengths of 482 nm and 515 nm, respectively. […] Moreover, the product produced could be quantified using BODIPY-C12 fatty acids to determine the molar rates of enzyme reaction. Since the assay uses a non-toxic substrate and a low amount of neutral detergent it is possible to use this assay with live cells (FIG. 4). The lipase activities assayed were sensitive to both the removal of lipase (HL) from the surface of hepatocytes (by a heparin pre-wash) and to apolipoproteins present in isolated lipoproteins, VLDL, LDL and HDL preparations.

LpL [1] = assay: LpL activity in the presence of human plasma / plasma TG-rich lipoproteins; assay type: biochemical; conditions: normal and dyslipidemic plasma
Experimental: (§1) The removal of cell surface LpL with heparin reduced activity.
(§2) Plasma contains lipoproteins with apoC-III and ANGPT4, known inhibitors of LpL activity. However, LpL activity in live leukocytes was stimulated by AV199-232 (FIG. 23C). […] AV199-232 was incubated with whole plasma from normal and diabetic/dyslipidemic plasma and then the TG-rich lipoproteins (Lp) were isolated by PEG-8000 precipitation and added to LpL assays (30 μg/ml).

LpL in THP-1 macrophages = target: T1, LpL in THP-1 macrophages (Homo sapiens, UniProt P06858); assay: Lipase activity in cultures of live THP-1 macrophages; assay type: cell-based; conditions: live THP-1 macrophages known to express LpL
T1 construct: endogenous in cells; host or cells: THP-1 macrophages
T1 sequence (P06858 28-475): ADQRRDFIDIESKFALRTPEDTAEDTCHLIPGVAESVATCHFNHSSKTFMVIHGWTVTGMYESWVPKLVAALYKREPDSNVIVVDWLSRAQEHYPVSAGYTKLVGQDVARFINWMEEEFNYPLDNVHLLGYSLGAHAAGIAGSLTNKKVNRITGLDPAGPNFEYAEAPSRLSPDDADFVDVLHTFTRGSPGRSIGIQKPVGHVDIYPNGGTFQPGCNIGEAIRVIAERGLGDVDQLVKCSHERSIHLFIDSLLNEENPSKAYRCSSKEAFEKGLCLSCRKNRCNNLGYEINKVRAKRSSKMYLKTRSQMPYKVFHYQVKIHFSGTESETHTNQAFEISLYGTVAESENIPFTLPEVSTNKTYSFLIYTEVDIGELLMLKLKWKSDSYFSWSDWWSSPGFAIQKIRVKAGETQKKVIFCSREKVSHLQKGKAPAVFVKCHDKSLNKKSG
Experimental: FIG. 8. Determining the minimum peptide sequence (A) harboring full lipase stimulating activity (B, D). […] Assays were performed by adding 10 μM of peptide to in vitro LpL assays (B) or to hepatocyte (HepG2) cell cultures (D). In 24 well tissue culture plates, cells were incubated for 1 hr at 37° C. in 200 μL TBS, 1.5% BSA, 0.2% zwittergent 3-14, 1μM EnzChek substrate. AV199-232 was also active in cultures of live THP-1 macrophages known to express LpL (C).

LpL [2] = assay: LpL enzyme kinetics (Vmax, Km) by Michaelis-Menten fitting; assay type: biochemical
Experimental: FIG. 9. […] Lipase reaction was performed with different substrate concentrations (0-25 μM) (A, C, D) to determine the kinetic parameters of LpL enzymatic activity, +/− VLDL (10 μg/ml) and +/− AV199-232 (2.5 μM). (B) The addition of VLDL reduced the enzymes affinity for substrate by 5.3-fold which is consistent with inhibition by apoC-III. […] Kinetic parameters were determined using GraphPad Prism software curve fitting to the Michaelis-Menten enzyme kinetic equation.
The influence of AV199-232 on the kinetic parameters of LpL activity (e.g., Vmax and Km) was investigated (FIG. 9A-B). […] This was due to the apoC-III content of VLDL. […] Also AV199-232 was functional in the presence of apoC-III in VLDL. The effect of different lipoproteins on LpL kinetics was compared (FIG. 9D).

VLDL = VLDL binding, complexes isolated by gel filtration on Sepharose CL-4B, then LpL assay
Experimental: VLDL (100 μg) was incubated with AV199-232 (50 μg) and complexes were isolated from free peptide by gel filtration on a Sepharose CL-4B column (FIG. 15A).

[3] = Heparin binding (circular dichroism on addition of heparin)
Experimental: FIG. 10. AV199-232 is an a-helical peptide that binds heparin. Peptide folding and conformation was analyzed experimentally by circular dichroism spectroscopy (A) and calculated to be ˜42% α-helical which increased to ˜76% on binding heparin.
Given that there appeared to be a periodicity in the sequence of AV199-232 consisting of alternating polar and non-polar residues, the possibility that the peptide was folded into a amphipathic α-helix was investigated (FIG. 10). […] In silico analysis also predicted a high α-helical content. […] The amphipathic nature of the peptide was evident with polar residues and nonpolar residues (domain-L) organized to opposite sides of the helix. Domain-L is responsible for binding to VLDL. Domain-1, domain-2 and domain-H were also identified on the polar side.

Leukocyte-LpL = target: T2, Leukocyte-LpL (Homo sapiens, UniProt P06858); assay: LpL activity in live leukocytes isolated from fresh human blood; assay type: cell-based
T2 construct: endogenous in cells; host or cells: leukocytes isolated from fresh human blood
T2 sequence (P06858 28-475): T1 sequence (P06858 28-475)
Experimental: as §1, §2

[4] = peptide added to LpL without VLDL, 10 μM
[5] = peptides 80 μg/ml preincubated with VLDL 20 μg/ml

Substance: Dom1KO: AV199-232 with domain 1 substitutions R12Q/D30S (ARLSRCVQVLSQKLTLKAKALHARIQQNLSQLRE)
- LpL stimulating activity of domain substitution peptides relative to AV199-232 (lipoprotein lipase (LpL)): significant reduction

Substance: AV-H/K: AV199-232 peptide with H in domain-H replaced with a K (ARLSRCVQVLSRKLTLKAKALKARIQQNLDQLRE; Mutated wild-type peptide)
- stimulation of LpL activity in the presence of plasma (LpL [1]): stimulates LpL

Substance: Dom2KO: AV199-232 with domain 2 substitutions K13Q/K17Q (ARLSRCVQVLSRQLTLQAKALHARIQQNLDQLRE)
- LpL stimulating activity of domain substitution peptides relative to AV199-232 (lipoprotein lipase (LpL)): significant reduction

Substance: AV199-232: 34-residue peptide, residues 199-232 of apoA-V; AV199-237 shortened by 5 residues (ARLSRCVQVLSRKLTLKAKALHARIQQNLDQLRE; listed as Homo sapiens)
- lipase stimulating activity in THP-1 macrophages (LpL in THP-1 macrophages): active
- increase of LpL's apparent affinity for substrate (Km improvement) (LpL [2]; AV199-232 2.5 μM + VLDL 10 μg/ml): ~8 fold and 7.8 fold
- changes in the Vmax and Km of LpL (LpL [2]; AV199-232 2.5 μM without VLDL): only marginal changes
- lipase stimulating activity of the shortened peptide relative to AV199-237 (lipoprotein lipase (LpL); 10 μM, in vitro LpL assays and HepG2 cell cultures): harbored full activity and was actually somewhat more potent; also recorded: enhancement of activity
- stimulation of LpL activity in the presence of plasma (LpL [1]): stimulates LpL activity
- VLDL binding (VLDL; VLDL 100 μg incubated with AV199-232 50 μg): binds VLDL
- LpL stimulation by the isolated VLDL:AV199-232 complex (VLDL; void fraction (Vo) of gel filtration added to LpL): effective at stimulating LpL activity; also recorded: stimulates LpL activity
- heparin binding [3]: heparin binding activity; also recorded: binds heparin
- stimulation of LpL activity in live leukocytes (Leukocyte-LpL): responds; also recorded: stimulated; also recorded: responsive

Substance: DomLKO: peptide with domain L substitutions L10Q/L21Q/L29Q (ARLSRCVQVQSRKLTLKAKAQHARIQQNQDQLRE)
- LpL stimulating activity of domain substitution peptides relative to AV199-232 (lipoprotein lipase (LpL)): moderate reduction in activity

Further lines, with some results ahead:

- stimulation of LpL activity (lipoprotein lipase (LpL); peptide incubated with VLDL before adding to LpL, 10 μM): ~4 fold
Substance: AV199-237: synthetic peptide spanning residues 199-237 of mature human apoA-V (ARLSRCVQVLSRKLTLKAKALHARIQQNLDQLREELSRA; listed as Homo sapiens)
- influence on LpL activity (lipoprotein lipase (LpL); in the presence of VLDL): exceeded that seen with an apoC-II peptide (C-II50-79); also recorded: stimulated LpL activity in the presence of VLDL
- influence on LpL activity (lipoprotein lipase (LpL); [4]): no change in activity; also recorded: did not increase enzyme activity

- LpL stimulating activity of domain substitution peptides relative to AV199-232 (lipoprotein lipase (LpL)): did not influence AV199-232 activity
Substance: Dom1(E34K): AV199-232 with E34K substitution in domain 1 (ARLSRCVQVLSRKLTLKAKALHARIQQNLDQLRK)

- lipase stimulating activity relative to AV-H/K (lipoprotein lipase (LpL); [5]): reduced lipase stimulating activity
Substance: SEQ ID NO: 22: AV-H/K with L10Q, L21Q and L29Q substitutions (ARLSRCVQVQSRKLTQKAKALKARIQQNQDQLRE; Mutated wild-type peptide)

- improvement in lipase stimulating activity relative to AV-H/K (lipoprotein lipase (LpL); [5]): about 2 fold
Substance: SEQ ID NO: 23: AV-H/K with L10F and L29F substitutions (ARLSRCVQVFSRKLTLKAKALKARIQQNFDQLRE; Mutated wild-type peptide)

- influence on LpL activity (lipoprotein lipase (LpL); [4]): Little or no stimulating activity
Substance: AV250-288: peptide spanning residues 250-288 of apoA-V (DPQMLSEEVRQRLQAFRQDTYLQIAAFTRAIDQETEEVQ)
- influence on LpL activity (lipoprotein lipase (LpL); in the presence of VLDL): Little or no stimulating activity; also recorded: did not
